2 cell lines from the supplement of paper PMC10307832 can be followed below.

What all share (assay): relative viability (nuclei count vs DMSO), 5 days (fraction); higher = more cells survive
Compound in the assay “Erlotinib + Olaparib”: C#Cc1cccc(Nc2ncnc3cc(OCCOC)c(OCCOC)cc23)c1 [Erlotinib] + O=C(c1cc(Cc2n[nH]c(=O)c3ccccc23)ccc1F)N1CCN(C(=O)C2CC2)CC1 [Olaparib] (partner 8 µM)
The essentials: (§1)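 After 5 days of treatment, lung cancer cells in 1536-well plates were fixed and stained in a single step (final 0.05% Triton X-100, 1% formaldehyde, 1 ug/ml Hoechst) and their nuclei counted on 4× images. Treatment had been applied by pin tool the day after seeding as one drug alone or as a fixed anchor-drug dose with five library-drug doses (not always all listed) in √10 steps. Relative viability is the nuclei count of treated wells divided by that of vehicle wells, and values are medians of duplicate plates.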

Compound in the assay “AT9283 + Bortezomib”: O=C(Nc1c[nH]nc1-c1nc2ccc(CN3CCOCC3)cc2[nH]1)NC1CC1 [AT9283] + CC(C)C[C@H](NC(=O)[C@H](Cc1ccccc1)NC(=O)c1cnccn1)B(O)O [Bortezomib] (partner 0.002 µM)
The essentials: as §1

Compound in the assay “AT9283 + Linsitinib”: O=C(Nc1c[nH]nc1-c1nc2ccc(CN3CCOCC3)cc2[nH]1)NC1CC1 [AT9283] + C[C@]1(O)C[C@@H](c2nc(-c3ccc4ccc(-c5ccccc5)nc4c3)c3c(N)nccn32)C1 [Linsitinib] (partner 1 µM)
The essentials:
as §1

Compound in the assay “AT9283 + Alpelisib”: O=C(Nc1c[nH]nc1-c1nc2ccc(CN3CCOCC3)cc2[nH]1)NC1CC1 [AT9283] + Cc1nc(NC(=O)N2CCC[C@H]2C(N)=O)sc1-c1ccnc(C(C)(C)C(F)(F)F)c1 [Alpelisib] (partner 2 µM)
The essentials: as §1

Compound in the assay “AT9283 + Olaparib”: O=C(Nc1c[nH]nc1-c1nc2ccc(CN3CCOCC3)cc2[nH]1)NC1CC1 [AT9283] + O=C(c1cc(Cc2n[nH]c(=O)c3ccccc23)ccc1F)N1CCN(C(=O)C2CC2)CC1 [Olaparib] (partner 8 µM)
Summed up:
as §1

Consider BEN, for which the relative viability with Erlotinib + Olaparib (first compound 0.02 µM) is 1.3; in the assay with Erlotinib + Olaparib (first compound 0.2 µM) it was 1.06; with Erlotinib + Olaparib (first compound 0.6325 µM) it was 1.14; with Erlotinib + Olaparib (first compound 2 µM) it was 1.03; with AT9283 + Bortezomib (first compound 0.003 µM) it was 0.688; with AT9283 + Bortezomib (first compound 0.03 µM), 0.739. For the same cell line, the relative viability in the assay with AT9283 + Bortezomib (first compound 0.09487 µM) came out at 0.242; with AT9283 + Bortezomib (first compound 0.3 µM) it was 0.27; with AT9283 + Linsitinib (first compound 0.003 µM), 0.718; in the assay with AT9283 + Linsitinib (first compound 0.03 µM), 0.894; with AT9283 + Linsitinib (first compound 0.09487 µM), 0.2; in the assay with AT9283 + Linsitinib (first compound 0.3 µM) it was 0.227. In addition, the relative viability in the assay with AT9283 + Alpelisib (first compound 0.003 µM) is 0.969; with AT9283 + Alpelisib (first compound 0.03 µM), 0.987; in the assay with AT9283 + Alpelisib (first compound 0.09487 µM) it was 0.23; with AT9283 + Alpelisib (first compound 0.3 µM), 0.245; with AT9283 + Olaparib (first compound 0.003 µM), 0.969; with AT9283 + Olaparib (first compound 0.03 µM), 0.747. In addition, the relative viability in the assay with AT9283 + Olaparib (first compound 0.09487 µM) worked out at 0.481; with AT9283 + Olaparib (first compound 0.3 µM) it was 0.298.
Regarding NCI-H3122, the relative viability is 0.618 with Erlotinib + Olaparib (first compound 0.02 µM); 0.652 in the assay with Erlotinib + Olaparib (first compound 0.2 µM); 0.631 with Erlotinib + Olaparib (first compound 0.6325 µM); 0.618 with Erlotinib + Olaparib (first compound 2 µM); 1.04 in the assay with AT9283 + Bortezomib (first compound 0.003 µM); 1.02 with AT9283 + Bortezomib (first compound 0.03 µM). The relative viability with AT9283 + Bortezomib (first compound 0.09487 µM) stood at 0.548; with AT9283 + Bortezomib (first compound 0.3 µM), 0.37; in the assay with AT9283 + Linsitinib (first compound 0.003 µM) it was 0.963; in the assay with AT9283 + Linsitinib (first compound 0.03 µM), 0.885; in the assay with AT9283 + Linsitinib (first compound 0.09487 µM), 0.346; with AT9283 + Linsitinib (first compound 0.3 µM) it was 0.166. Moreover, the relative viability with AT9283 + Alpelisib (first compound 0.003 µM) was found to be 0.786; in the assay with AT9283 + Alpelisib (first compound 0.03 µM) it was 0.764; in the assay with AT9283 + Alpelisib (first compound 0.09487 µM) it was 0.28; in the assay with AT9283 + Alpelisib (first compound 0.3 µM) it was 0.227; in the assay with AT9283 + Olaparib (first compound 0.003 µM), 0.561; in the assay with AT9283 + Olaparib (first compound 0.03 µM) it was 0.571. Also, the relative viability with AT9283 + Olaparib (first compound 0.09487 µM) turned out to be 0.351; with AT9283 + Olaparib (first compound 0.3 µM), 0.241.
